Experimental data reported in US10611730B2, “Benzimidazolone and benzothiazolone compounds and their use as AMPA receptor modulators” (Janssen Pharmaceutica NV, priority 2015, dated 2020).

What was measured:
[1] = system: endogenous γ 8-containing AMPA receptor currents; assay: Whole-cell electrophysiology on acutely-dissociated mouse hippocampal neurons; assay type: cell-based; conditions: 10 mM glutamate, 500 ms, held at −60 mV
Method: The effects of selected compounds upon endogenous γ 8-containing AMPA receptor currents was evaluated using whole-cell electrophysiology on acutely-dissociated mouse hippocampal neurons. Hippocampus was chosen for this assay, since CACNG8 (the protein encoded by this gene is a type I transmembrane AMPA receptor regulatory protein i.e., TARP) is preferentially enriched in this brain region (Tomita et al. (2003). “Functional studies and distribution define a family of transmembrane AMPA receptor regulatory proteins.” J Cell Biol 161(4): 805-816.2003).
Hippocampi were dissected from C57black6 mice at 4-12 weeks postnatal, following the protocol described by Brewer (Brewer, G. J. (1997). “Isolation and culture of adult rat hippocampal neurons.” Journal of Neuroscience Methods 71(2): 143-155). The following is a brief summary of the procedure. Mice were asphyxiated with CO2 then decapitated. The brain was rapidly removed, then placed into ice-cold HABG medium. The recipe for HABG medium was: HibernateA supplemented with 2% B27 and 0.5 mM Glutamax (all reagents from Life Technologies). Hippocampi were micro-dissected from the brains, then washed with HABG without calcium (Hibernate A minus Calcium, BrainBits; 2% B27, Life Technologies; 0.5 mM glutamax, Life Technologies).
The hippocampi were then transferred to HABG without calcium, supplemented with 2 mg/mL papain (Worthington Biochemical). They were incubated at 30° C. on a roller for 40 min, then gently triturated with a fire-polished glass pipette. The supernatant containing dissociated neurons was collected, then centrifuged for 2 min at 200 g. The cell pellet was collected, and then resuspended in 8 mL of HABG. Live cells were counted, then plated onto 12 mm glass coverslips in HABG (2 mL) in 24-well plates at a density of 50-100 cells per coverslip. These cells were maintained at room temperature until use.
Whole-cell electrophysiology was performed using 1.5 mm diameter glass capillary tubes (World Precision Instruments TW150-4), pulled to a fine tip with a Sutter P-97 micropipette puller. The intracellular buffer was 90 mM KF, 30 mM KCl, 10 mM HEPES, and 5 mM EGTA, pH 7.4, 290 mOs. The extracellular buffer was 135 mM NaCl, 4 mM KCl, 2 mM CaCl2), 1 mM MgCl2, 5 mM glucose, 10 mM HEPES, pH 7.4, 300 mOs. The open-tip resistances of the micropipettes using these solutions were 2-4MΩ. Whole-cell recordings of neuron cell bodies were performed in voltage-clamp mode using an Axon Axopatch 200B amplifier. Whole-cell current was measured holding the interior of the cell at −60 mV, using a 5 kHz lowpass filter. The cells were continuously perfused through 7 mm square glass barrels using a solenoid-controlled solution switching device (Warner Instruments, PF-77B). The peak current in response to a 500 ms exposure to 10 mM glutamate every 5 seconds was measured, before and after exposure to test compound.
For analysis, the mean peak current of 5 traces in the presence of test compound was divided by the mean peak current of 5 traces prior to the addition of test compound. Compounds were tested at concentrations at least ten times higher than their estimated potency in the calcium flux assay, in order to ensure near-saturating occupancy of the receptor.
The table below summarizes the results of this electrophysiological assay. Peak current (% control) is mean of the peak response to glutamate in the presence of the indicated compound, normalized to the peak response to glutamate in the absence of test compound. N is the number of neurons tested. The compounds were tested at concentrations noted below in Table 5. At the said tested concentrations, the peak response to glutamate was reduced compared to controls for all tested compounds.

[2] = target: TARP γ8 dependent AMPA receptor (GluA1o-g8 fusion channel) (Homo sapiens (Human), UniProt P42261+Q8WXS5); assay: Calcium flux assay (FLIPR), HEK293 cells expressing GRIA1o-CACNG8 fusion; assay type: cell-based; conditions: inhibition of calcium flux after 15 μM glutamate; for IC50: read-out: GluR1-γ8 pIC50 (converted)
In short: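 Stable HEK293 clone expressing GluA1o-γ8 fusion (1:1 stoichiometry), loaded with Calcium-5/6 dye plus test compound; glutamate-evoked fluorescence normalized to control wells. Concentration-response fitted to four-parameter logistic, midpoint taken as inhibitory potency.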

Chain of TARP γ8 dependent AMPA receptor (GluA1o-g8 fusion channel) (P42261 other isoform, or with tags, fused parts or gaps): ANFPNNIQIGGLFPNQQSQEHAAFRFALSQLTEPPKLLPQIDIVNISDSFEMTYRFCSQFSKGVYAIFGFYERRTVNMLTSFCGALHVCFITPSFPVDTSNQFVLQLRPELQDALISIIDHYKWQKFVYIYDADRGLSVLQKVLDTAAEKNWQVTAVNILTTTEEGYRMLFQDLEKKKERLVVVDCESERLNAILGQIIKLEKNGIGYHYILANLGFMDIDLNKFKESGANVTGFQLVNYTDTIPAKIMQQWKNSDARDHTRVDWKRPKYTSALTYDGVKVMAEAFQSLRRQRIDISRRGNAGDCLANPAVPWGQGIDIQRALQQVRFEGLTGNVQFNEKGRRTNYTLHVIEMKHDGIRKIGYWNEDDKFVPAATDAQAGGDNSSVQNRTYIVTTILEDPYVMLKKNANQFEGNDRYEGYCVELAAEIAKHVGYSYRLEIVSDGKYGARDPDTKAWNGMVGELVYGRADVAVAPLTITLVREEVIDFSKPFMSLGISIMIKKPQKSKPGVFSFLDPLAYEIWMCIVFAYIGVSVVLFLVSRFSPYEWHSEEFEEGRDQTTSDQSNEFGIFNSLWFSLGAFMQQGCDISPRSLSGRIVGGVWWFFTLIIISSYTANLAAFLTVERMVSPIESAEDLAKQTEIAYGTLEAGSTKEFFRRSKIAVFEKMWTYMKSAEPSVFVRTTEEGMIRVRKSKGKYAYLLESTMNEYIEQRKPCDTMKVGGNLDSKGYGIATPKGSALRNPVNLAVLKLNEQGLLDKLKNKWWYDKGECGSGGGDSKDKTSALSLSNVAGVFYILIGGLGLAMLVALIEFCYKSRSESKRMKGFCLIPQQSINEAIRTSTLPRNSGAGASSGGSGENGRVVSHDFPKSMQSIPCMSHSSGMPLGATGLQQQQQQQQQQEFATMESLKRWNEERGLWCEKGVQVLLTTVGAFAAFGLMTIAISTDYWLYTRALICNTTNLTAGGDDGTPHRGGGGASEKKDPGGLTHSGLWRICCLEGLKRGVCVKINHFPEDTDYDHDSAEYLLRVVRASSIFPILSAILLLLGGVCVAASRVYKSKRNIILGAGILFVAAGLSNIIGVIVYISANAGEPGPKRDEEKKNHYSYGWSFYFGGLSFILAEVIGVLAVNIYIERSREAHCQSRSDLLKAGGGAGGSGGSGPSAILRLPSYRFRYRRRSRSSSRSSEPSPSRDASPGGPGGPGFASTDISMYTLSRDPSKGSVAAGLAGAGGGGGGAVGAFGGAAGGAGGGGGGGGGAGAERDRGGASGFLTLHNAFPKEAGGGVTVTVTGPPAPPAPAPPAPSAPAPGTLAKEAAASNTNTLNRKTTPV

Compound | IC50 [2] [nM] | peak current (% control) ([1]; 10 μM compound) [%] | GluR1-γ8 pIC50 [2] | peak current (% control) ([1]; 1 μM compound) [%]
Cc1cccc(C)c1-c1ccc2[nH]c(=O)[nH]c2c1 [Example 2, 5-(2,6-Dimethylphenyl)-1,3-dihydrobenzimidazol-2-one] |  | 70 | 6.8 | 
COc1cccc(OCC(C)C)c1-c1ccc2[nH]c(=O)[nH]c2c1 [Example 14, 5-(2-Isobutoxy-6-methoxy-phenyl)-1,3-dihydrobenzimidazol-2-one] | 31.6 |  |  | 69
O=c1[nH]c2ccc(-c3c(Cl)cccc3OC(F)(F)F)cc2[nH]1 [Example 31, 5-[2-Chloro-6-(trifluoromethoxy)phenyl]-1,3-dihydrobenzimidazol-2-one] |  |  |  | 61
N#CCc1cccc(OC(F)(F)F)c1-c1ccc2[nH]c(=O)[nH]c2c1 [Example 123] | 15.8 |  |  | 59
N#CCc1cccc(Cl)c1-c1ccc2[nH]c(=O)[nH]c2c1 [Example 124, 2-[3-Chloro-2-(2-oxo-1,3-dihydrobenzimidazol-5-yl)phenyl]acetonitrile] | 12.6 |  |  | 63
O=c1[nH]c2ccc(-c3c(Cl)cccc3C3CC3)cc2[nH]1 [Example 160, 5-(2-Chloro-6-cyclopropyl-phenyl)-1,3-dihydrobenzimidazol-2-one] |  |  | 8.2 | 70

More lines, main results first:

IC50 [2] [nM] | Compound | peak current (% control) ([1]; 10 μM compound) [%] | GluR1-γ8 pIC50 [2] | peak current (% control) ([1]; 1 μM compound) [%]
63.1 | Cc1cccc(Cl)c1-c1ccc2[nH]c(=O)[nH]c2c1 [Example 36, 5-(2-Chloro-6-methyl-phenyl)-1,3-dihydrobenzimidazol-2-one] |  |  | 72
10 | O=c1[nH]c2ccc(-c3c(Cl)ccc(Cl)c3Cl)cc2[nH]1 [Example 66, 5-(2,3,6-Trichlorophenyl)-1,3-dihydrobenzimidazol-2-one] |  |  | 86
